# Measurements published in PMC5218480 (PLoS ONE, 2017).
# Test system: MV-4-11 cells
# Experiment: Gene expression microarray analysis (Affymetrix PrimeView) and GSEA
# Format: cell-based, human
# Design: RFU PODN (11730768_x_at) / Fold change /veh PODN (11730768_x_at) / RFU LINC00158 (11744669_a_at) / Fold change /veh LINC00158 (11744669_a_at) / RFU DUSP10 (11751237_a_at) / Fold change /veh DUSP10 (11751237_a_at) / RFU ID3 (11757404_x_at) / Fold change /veh ID3 (11757404_x_at) / RFU PLEKHG5 (11737974_s_at) / Fold change /veh PLEKHG5 (11737974_s_at) / RFU LRRC4B (11730491_at) / Fold change /veh LRRC4B (11730491_at) / RFU GIMAP4 (11747438_a_at) / Fold change /veh GIMAP4 (11747438_a_at) / RFU KRT8 (11758183_x_at) / Fold change /veh KRT8 (11758183_x_at) / RFU CNN1 (11734310_a_at) / Fold change /veh CNN1 (11734310_a_at) / RFU VPS37D (11726825_at) / Fold change /veh VPS37D (11726825_at) / RFU C10orf10 (11716522_x_at) / Fold change /veh C10orf10 (11716522_x_at) / RFU KIR2DL2 /// KIR2DL4 /// KIR2DL5A /// KIR2DL5B /// KIR2DS1 /// KIR2DS2 /// KIR2DS3 /// KIR2DS4 /// KIR3DL3 /// KIR3DL3 /// KIR3DS1 (11738374_at) / Fold change /veh KIR2DL2 /// KIR2DL4 /// KIR2DL5A /// KIR2DL5B /// KIR2DS1 /// KIR2DS2 /// KIR2DS3 /// KIR2DS4 /// KIR3DL3 /// KIR3DL3 /// KIR3DS1 (11738374_at) / RFU C1QL1 (11718748_at) / Fold change /veh C1QL1 (11718748_at) / RFU TMPRSS4 (11747572_a_at) / Fold change /veh TMPRSS4 (11747572_a_at) / RFU HAMP (11756126_x_at) / Fold change /veh HAMP (11756126_x_at) / RFU RNFT2 (11725882_a_at) / Fold change /veh RNFT2 (11725882_a_at) / RFU NR4A2 (11747474_a_at) / Fold change /veh NR4A2 (11747474_a_at) / RFU ABCC12 (11746883_a_at) / Fold change /veh ABCC12 (11746883_a_at) / RFU TMEM136 (11760407_x_at) / Fold change /veh TMEM136 (11760407_x_at) / RFU CLDN22 /// WWC2 (11732394_at) / Fold change /veh CLDN22 /// WWC2 (11732394_at) / RFU HLA-DPB1 (11760878_x_at) / Fold change /veh HLA-DPB1 (11760878_x_at) / RFU SPINT1 (11716480_a_at) / Fold change /veh SPINT1 (11716480_a_at) / RFU GAP43 (11754022_s_at) / Fold change /veh GAP43 (11754022_s_at) / RFU A4GNT (11735810_at) / Fold change /veh A4GNT (11735810_at) / RFU PRB3 (11715151_x_at) / Fold change /veh PRB3 (11715151_x_at) / RFU TUBB4B (11761932_at) / Fold change /veh TUBB4B (11761932_at) / RFU CAPN14 (11732068_a_at) / Fold change /veh CAPN14 (11732068_a_at) / RFU TMCC2 (11721928_a_at) / Fold change /veh TMCC2 (11721928_a_at) / RFU IRGQ (11745062_a_at) / Fold change /veh IRGQ (11745062_a_at) / RFU FAM174B (11720279_a_at) / Fold change /veh FAM174B (11720279_a_at) / RFU TMPRSS4 (11748680_a_at) / Fold change /veh TMPRSS4 (11748680_a_at) / RFU FAM212B (11763350_a_at) / Fold change /veh FAM212B (11763350_a_at) / RFU PLEKHG5 (11743358_a_at) / Fold change /veh PLEKHG5 (11743358_a_at) / RFU ZSCAN30 (11745921_a_at) / Fold change /veh ZSCAN30 (11745921_a_at) / RFU CMKLR1 (11741424_a_at) / Fold change /veh CMKLR1 (11741424_a_at) / RFU LOC101060620 /// MAPK8IP1 (11723275_at) / Fold change /veh LOC101060620 /// MAPK8IP1 (11723275_at) / RFU SPTSSB (11747773_x_at) / Fold change /veh SPTSSB (11747773_x_at) / RFU PRSS12 (11739890_at) / Fold change /veh PRSS12 (11739890_at) / RFU BIN1 (11741810_x_at) / Fold change /veh BIN1 (11741810_x_at) / RFU WNT11 (11732464_a_at) / Fold change /veh WNT11 (11732464_a_at) / RFU C10orf10 (11716521_a_at) / Fold change /veh C10orf10 (11716521_a_at) / RFU C5orf56 (11738089_at) / Fold change /veh C5orf56 (11738089_at) / RFU CYB561 (11721691_x_at) / Fold change /veh CYB561 (11721691_x_at) / RFU ANKRD19P (11752326_a_at) / Fold change /veh ANKRD19P (11752326_a_at) / RFU OR2T12 /// OR2T33 /// OR2T8 (11738714_s_at) / Fold change /veh OR2T12 /// OR2T33 /// OR2T8 (11738714_s_at) / RFU VCAN (11748164_a_at) / Fold change /veh VCAN (11748164_a_at) / RFU JSRP1 (11732532_at) / Fold change /veh JSRP1 (11732532_at) / RFU KRTAP10-11 (11738290_x_at) / Fold change /veh KRTAP10-11 (11738290_x_at) / RFU MYO3A (11730013_a_at) / Fold change /veh MYO3A (11730013_a_at) / RFU EBF3 (11725865_a_at) / Fold change /veh EBF3 (11725865_a_at) / RFU CAMK2N1 (11719241_x_at) / Fold change /veh CAMK2N1 (11719241_x_at) / RFU C5orf56 (11738088_a_at) / Fold change /veh C5orf56 (11738088_a_at) / RFU OLFML3 (11715873_a_at) / Fold change /veh OLFML3 (11715873_a_at) / RFU LOC100653217 /// NTM (11731650_a_at) / Fold change /veh LOC100653217 /// NTM (11731650_a_at) / RFU MAPK11 (11762145_a_at) / Fold change /veh MAPK11 (11762145_a_at) / RFU FIZ1 (11724087_x_at) / Fold change /veh FIZ1 (11724087_x_at) / RFU OASL (11726364_x_at) / Fold change /veh OASL (11726364_x_at) / RFU SOX15 (11748057_x_at) / Fold change /veh SOX15 (11748057_x_at) / RFU CD79A (11719716_a_at) / Fold change /veh CD79A (11719716_a_at) / RFU HIST1H1D (11736915_at) / Fold change /veh HIST1H1D (11736915_at) / RFU CASKIN2 (11723855_a_at) / Fold change /veh CASKIN2 (11723855_a_at) / RFU LOC730098 (11760151_x_at) / Fold change /veh LOC730098 (11760151_x_at) / RFU OR4N2 (11742367_at) / Fold change /veh OR4N2 (11742367_at) / RFU PRRT2 (11749266_a_at) / Fold change /veh PRRT2 (11749266_a_at) / RFU SNX32 (11753110_a_at) / Fold change /veh SNX32 (11753110_a_at) / RFU CDHR5 (11726645_a_at) / Fold change /veh CDHR5 (11726645_a_at) / RFU RCAN1 (11760418_a_at) / Fold change /veh RCAN1 (11760418_a_at) / RFU FAM167A (11723789_a_at) / Fold change /veh FAM167A (11723789_a_at) / RFU FAM26E (11764081_at) / Fold change /veh FAM26E (11764081_at) / RFU ISYNA1 (11749810_s_at) / Fold change /veh ISYNA1 (11749810_s_at) / RFU ACY1 (11761880_at) / Fold change /veh ACY1 (11761880_at) / RFU 11764098_at / Fold change /veh 11764098_at / RFU SAMD14 (11745864_x_at) / Fold change /veh SAMD14 (11745864_x_at) / RFU NPB (11741838_a_at) / Fold change /veh NPB (11741838_a_at) / RFU TMPRSS6 (11731388_a_at) / Fold change /veh TMPRSS6 (11731388_a_at) / RFU KRTAP10-2 (11738614_at) / Fold change /veh KRTAP10-2 (11738614_at) / RFU ARHGAP8 /// PRR5-ARHGAP8 (11727945_x_at) / Fold change /veh ARHGAP8 /// PRR5-ARHGAP8 (11727945_x_at) / RFU KRTAP5-7 /// NADSYN1 (11734609_at) / Fold change /veh KRTAP5-7 /// NADSYN1 (11734609_at) / RFU RASL12 (11751679_a_at) / Fold change /veh RASL12 (11751679_a_at) / RFU CDKN2B (11736163_a_at) / Fold change /veh CDKN2B (11736163_a_at) / RFU PRF1 (11729649_at) / Fold change /veh PRF1 (11729649_at) / RFU, ZNF638 /// ZNF638-IT1 / Fold change vs veh, ZNF638 /// ZNF638-IT1 / RFU, PANK3 / Fold change vs veh, PANK3 / RFU, SH3YL1 / Fold change vs veh, SH3YL1 / RFU, ZEB2 / Fold change vs veh, ZEB2 / RFU, NRIP1 / Fold change vs veh, NRIP1 / RFU, PTTG1IP / Fold change vs veh, PTTG1IP / RFU, CAPN2 / Fold change vs veh, CAPN2 / RFU, MED14 / Fold change vs veh, MED14 / RFU, SNORA58 / Fold change vs veh, SNORA58 / RFU, C1orf63 / Fold change vs veh, C1orf63 / RFU, LRRFIP1 / Fold change vs veh, LRRFIP1 / RFU, NDUFAF7 / Fold change vs veh, NDUFAF7 / RFU, SLC12A2 / Fold change vs veh, SLC12A2 / RFU, IBTK / Fold change vs veh, IBTK / RFU, ESF1 / Fold change vs veh, ESF1 / Fold change vs veh, TMEM50B / RFU, TAOK1 / Fold change vs veh, TAOK1 / RFU, ACBD3 / Fold change vs veh, ACBD3 / RFU, TMA16 / Fold change vs veh, TMA16 / RFU, RWDD3 / Fold change vs veh, RWDD3 / RFU, BCAT1 / Fold change vs veh, BCAT1 / RFU, EDEM3 / Fold change vs veh, EDEM3 / RFU, TMEM33 / Fold change vs veh, TMEM33 / RFU, WDR75 / Fold change vs veh, WDR75 / RFU, AHCTF1 / Fold change vs veh, AHCTF1 / RFU, TFRC / Fold change vs veh, TFRC / RFU, ZDHHC17 / Fold change vs veh, ZDHHC17 / RFU, NOM1 / Fold change vs veh, NOM1 / RFU, ARL8B / Fold change vs veh, ARL8B / RFU, ZBTB11 / Fold change vs veh, ZBTB11 / RFU, TAMM41 / Fold change vs veh, TAMM41 / RFU, KIAA1704 /// LOC100996395 / Fold change vs veh, KIAA1704 /// LOC100996395 / RFU, ING1 / Fold change vs veh, ING1 / RFU, TRMT61B / Fold change vs veh, TRMT61B / RFU, FUBP3 / Fold change vs veh, FUBP3 / RFU, TP53 / Fold change vs veh, TP53 / RFU, TNKS2 / Fold change vs veh, TNKS2 / RFU, ZFP14 / Fold change vs veh, ZFP14 / RFU, ACTR2 / Fold change vs veh, ACTR2 / RFU, PPP3R1 / Fold change vs veh, PPP3R1 / RFU, PIK3R1 / Fold change vs veh, PIK3R1 / RFU, HNRNPA1 / Fold change vs veh, HNRNPA1 / RFU, RNF170 / Fold change vs veh, RNF170 / RFU, ZNF28 / Fold change vs veh, ZNF28 / RFU, RNGTT / Fold change vs veh, RNGTT / RFU, OGT / Fold change vs veh, OGT / RFU, BRD1 / Fold change vs veh, BRD1 / RFU, MARS / Fold change vs veh, MARS / RFU, ZNF655 / Fold change vs veh, ZNF655 / RFU, FAHD1 / Fold change vs veh, FAHD1 / RFU, BDP1 / Fold change vs veh, BDP1 / RFU, LRRCC1 / Fold change vs veh, LRRCC1 / RFU, ARID1A / Fold change vs veh, ARID1A / RFU, ZNF146 / Fold change vs veh, ZNF146 / RFU, ZNF330 / Fold change vs veh, ZNF330 / RFU, GPN3 / Fold change vs veh, GPN3 / RFU, C9orf123 / Fold change vs veh, C9orf123 / RFU, N4BP2L2 / Fold change vs veh, N4BP2L2 / RFU, ARFIP1 / Fold change vs veh, ARFIP1 / RFU, FAM179B / Fold change vs veh, FAM179B / RFU, BCL10 / Fold change vs veh, BCL10 / RFU, UHRF1BP1L / Fold change vs veh, UHRF1BP1L / RFU, BET1 / Fold change vs veh, BET1 / RFU, CNOT2 / Fold change vs veh, CNOT2 / RFU, ZNF268 / Fold change vs veh, ZNF268 / Fold change vs veh, ZNF507 / RFU, DGCR2 / Fold change vs veh, DGCR2 / RFU, WDSUB1 / Fold change vs veh, WDSUB1 / Fold change vs veh, HSP90B1 /// MIR3652 / RFU, ADSS / Fold change vs veh, ADSS / RFU, GK / Fold change vs veh, GK / RFU, ZNF148 / Fold change vs veh, ZNF148 / RFU, TAF9 / Fold change vs veh, TAF9 / RFU, SLC1A5 / Fold change vs veh, SLC1A5 / RFU, SLMO2 / Fold change vs veh, SLMO2 / RFU, ABCC4 / Fold change vs veh, ABCC4 / RFU, LOC101060439 /// RAP1B / Fold change vs veh, LOC101060439 /// RAP1B / RFU, RFX7 / Fold change vs veh, RFX7 / RFU, GTPBP10 / Fold change vs veh, GTPBP10 / RFU, CNEP1R1 / Fold change vs veh, CNEP1R1 / RFU, BIVM-ERCC5 /// ERCC5 / Fold change vs veh, BIVM-ERCC5 /// ERCC5 / RFU, ILF3 / Fold change vs veh, ILF3 / RFU 11762660_at / Fold change /veh 11762660_at / RFU VCAN (11757783_s_at) / Fold change /veh VCAN (11757783_s_at) / RFU DDX43 (11728927_at) / Fold change /veh DDX43 (11728927_at) / RFU KRT8 (11758188_x_at) / Fold change /veh KRT8 (11758188_x_at) / RFU NKD1 (11759106_at) / Fold change /veh NKD1 (11759106_at) / RFU SRD5A1 (11742802_a_at) / Fold change /veh SRD5A1 (11742802_a_at) / RFU TPSAB1 /// TPSB2 (11721975_s_at) / Fold change /veh TPSAB1 /// TPSB2 (11721975_s_at) / RFU GSTM3 (11746129_a_at) / Fold change /veh GSTM3 (11746129_a_at) / RFU IL23R (11737362_x_at) / Fold change /veh IL23R (11737362_x_at) / RFU TMEM51 (11727254_a_at) / Fold change /veh TMEM51 (11727254_a_at) / RFU PIWIL2 (11732686_x_at) / Fold change /veh PIWIL2 (11732686_x_at) / RFU ORM1 (11744905_x_at) / Fold change /veh ORM1 (11744905_x_at) / RFU CCDC152 (11743942_at) / Fold change /veh CCDC152 (11743942_at) / RFU ECM1 (11717891_a_at) / Fold change /veh ECM1 (11717891_a_at) / RFU IL23R (11748794_a_at) / Fold change /veh IL23R (11748794_a_at) / RFU TNFAIP8L3 (11732012_x_at) / Fold change /veh TNFAIP8L3 (11732012_x_at) / RFU MBOAT4 (11741988_at) / Fold change /veh MBOAT4 (11741988_at) / RFU 11764193_at / Fold change /veh 11764193_at / RFU TMEM53 (11763286_at) / Fold change /veh TMEM53 (11763286_at) / RFU MAGEB2 (11727129_at) / Fold change /veh MAGEB2 (11727129_at) / RFU TMEM200A (11744735_a_at) / Fold change /veh TMEM200A (11744735_a_at) / RFU CCDC152 (11751479_a_at) / Fold change /veh CCDC152 (11751479_a_at) / RFU FAM211A (11726209_a_at) / Fold change /veh FAM211A (11726209_a_at) / RFU RGS16 (11746705_a_at) / Fold change /veh RGS16 (11746705_a_at) / RFU VCAN (11755009_s_at) / Fold change /veh VCAN (11755009_s_at) / RFU RHOB (11743442_s_at) / Fold change /veh RHOB (11743442_s_at) / RFU RGS16 (11720943_a_at) / Fold change /veh RGS16 (11720943_a_at) / RFU RGS16 (11720944_at) / Fold change /veh RGS16 (11720944_at) / RFU, VPS4B / Fold change vs veh, VPS4B / RFU, CREB1 / Fold change vs veh, CREB1 / RFU, DNAJC13 / Fold change vs veh, DNAJC13 / RFU, GNAQ / Fold change vs veh, GNAQ / RFU, CDK5R1 / Fold change vs veh, CDK5R1 / RFU, ZRANB3 / Fold change vs veh, ZRANB3 / RFU, CUL4A / Fold change vs veh, CUL4A / RFU, CCNY / Fold change vs veh, CCNY / RFU, UFL1 / Fold change vs veh, UFL1 / RFU, COG3 / Fold change vs veh, COG3 / RFU, DIAPH2 / Fold change vs veh, DIAPH2 / RFU, SKA2 / Fold change vs veh, SKA2 / RFU, AFF3 / Fold change vs veh, AFF3 / RFU, LMF1 / Fold change vs veh, LMF1 / RFU, IPO11 / Fold change vs veh, IPO11 / RFU, DFFB / Fold change vs veh, DFFB / RFU, FOXP1 / Fold change vs veh, FOXP1 / RFU, CARD8 / Fold change vs veh, CARD8 / RFU, STRN3 / Fold change vs veh, STRN3 / RFU, ADK / Fold change vs veh, ADK / RFU, RASSF2 / Fold change vs veh, RASSF2 / RFU, WIPF1 / Fold change vs veh, WIPF1 / RFU, LARP1B / Fold change vs veh, LARP1B / RFU, RASA1 / Fold change vs veh, RASA1 / RFU, RB1 / Fold change vs veh, RB1 / RFU, PPFIA1 / Fold change vs veh, PPFIA1 / RFU, MAT2A / Fold change vs veh, MAT2A / RFU, CCT5 / Fold change vs veh, CCT5 / RFU, WDR92 / Fold change vs veh, WDR92 / RFU, CUX1 / Fold change vs veh, CUX1 / RFU, TTC7A / Fold change vs veh, TTC7A / RFU, TMEM135 / Fold change vs veh, TMEM135 / RFU, DEPTOR / Fold change vs veh, DEPTOR / RFU, CPM / Fold change vs veh, CPM / RFU, DNAJB6 / Fold change vs veh, DNAJB6 / RFU, CACNA2D3 / Fold change vs veh, CACNA2D3 / RFU, DTX4 / Fold change vs veh, DTX4 / RFU, TFCP2 / Fold change vs veh, TFCP2 / RFU, GMCL1 /// GMCL1P1 / Fold change vs veh, GMCL1 /// GMCL1P1 / RFU, AEBP2 / Fold change vs veh, AEBP2 / RFU, SNHG1 /// SNORD22 /// SNORD25 /// SNORD26 /// SNORD27 /// SNORD28 /// SNORD29 /// SNORD31 / Fold change vs veh, SNHG1 /// SNORD22 /// SNORD25 /// SNORD26 /// SNORD27 /// SNORD28 /// SNORD29 /// SNORD31 / Fold change (Aza/veh), C12orf56 (ProbeSet 11735607_a_at) / Fold change (ACY-1035/veh), C12orf56 (ProbeSet 11735607_a_at) / Fold change (Aza/veh), FGFR1OP (ProbeSet 11751329_s_at) / Fold change (ACY-1035/veh), FGFR1OP (ProbeSet 11751329_s_at) / Fold change (Aza/veh), VPS36 (ProbeSet 11739960_a_at) / Fold change (ACY-1035/veh), VPS36 (ProbeSet 11739960_a_at) / RFU SYPL1 (11715823_x_at) / Fold change /veh SYPL1 (11715823_x_at) / RFU IGFBP7 (11715501_s_at) / Fold change /veh IGFBP7 (11715501_s_at) / RFU REEP3 (11722064_at) / Fold change /veh REEP3 (11722064_at) / RFU IGLL1 (11728026_x_at) / Fold change /veh IGLL1 (11728026_x_at): dose or concentration left out as unconfirmed
# Conditions: MV-4-11 cells, 48 hours
structure (smiles),measurement,value
Nc1ccc(-c2cccs2)cc1NC(=O)c1ccc2c(c1)cc(C1CC1)n2CCN1CCOCC1 [ACY-1035],RFU ID3 (11757404_x_at),47.18 RFU
